Measured values reported in patent US7708998B2, “Methods of inhibiting unwanted cell proliferation using hedgehog antagonists” (Curis, Inc., priority 2000, dated 2010).

These molecules were tested on hedgehog signaling in embryonic mouse lungs (assay: embryonic mouse lung explants, Q-RT-PCR of gli-1 and Sp-C). Conditions: E13.5 mouse lung explants, Q-RT-PCR normalized to GAPDH.
Assay type: cell-based
Procedure: METHODS: E13.5 embryonic mouse lungs were dissected. Explants were grown exposed to the air-liquid interface in lung explant medium (DMEM based, additives optimized for the culture of mouse lungs) for 67 hrs. They were then processed for quantitative real-time PCR (Q-RT-PCR). Briefly, total ribonucleic acid (RNA) is isolated from the tissue and subjected to reverse transcription to generate DNA. This DNA is amplified in a polymerase chain reaction using gene-specific primers as well as primers for the ubiquitously expressed housekeeping gene GAPDH. The two primer sets are labeled with different fluorophores, allowing for quantification of both signals in the same reaction tube in a real-time PCR machine (TaqMan). When calculating the expression level of gli-1, the specific signal is normalized to the GAPDH signal, which serves as a measure of the total DNA used in the reaction.
METHODS: E13.5 old embryonic mouse lungs were dissected. Explants were grown submerged in lung explant medium (DMEM based, additives optimized for the culture of mouse lungs) for 50 hrs. They were then processed for Q-RT-PCR. Briefly, total ribonucleic acid (RNA) is isolated from the tissue and subjected to reverse transcription to generate DNA. […] The two primer sets are labeled with different fluorophores, allowing for quantification of both signals in the same reaction tube in a real-time PCR machine (TaqMan). […]
With C[C@]12CCC(=O)C=C1CC[C@@H]1[C@@H]2[C@@H](O)C[C@@]2(C)[C@H]1CC[C@]2(O)C(=O)CO [hydrocortisone] the “surfactant type C (Sp-C) expression” value was “comparable”.

These molecules were tested on Shh signaling pathway in MEFs homozygous for ptc-lacZ (assay: β-galactosidase activity in ptc-lacZ mouse embryonic fibroblasts). Conditions: MEFs homozygous for ptc-lacZ (cell line 23-1), normalized to whole protein content.
Assay type: cell-based
Text: The Shh signaling pathway can be activated in these fibroblasts in cell culture, and that the level of β-galactosidase activity does reflect the degree of pathway activation.
For C[C@H]1CC[C@]2(NC1)O[C@H]1C[C@H]3[C@@H]4CC[C@H]5C[C@@H](O)CC[C@]5(C)[C@H]4CC[C@]3(C)[C@H]1[C@@H]2C [tomatidine], the β-galactosidase activity was “non-inhibitory”.

What follows are molecules tested on Shh-induced Gli-transcription (assay: Gli-Luc assay in 10T1/2(s12) cells activated with OCT-SHH). Conditions: Gli-Luc response, OCT-SHH 0.3 μg/ml.
Assay type: cell-based
Procedure: Compounds to be tested are dissolved in DMSO to a concentration of 10 mM, and stored at −20° C. To activate the Hedgehog pathway in the assay cells, an octylated (lipid-modified) form of the N-terminal fragment of the Sonic Hedgehog protein (OCT-SHH) is used. This N-terminal SHH fragment is produced bacterially.
Compounds may be tested in the “Gli-Luc” assay below, using the cell line 10T(s12), wherein the cells contain a Hedgehog-responsive reporter construct utilizing Luciferase as the reporter gene. In this way, Hedgehog pathway signaling activity can be measured via the Gli-Luc response.
10t1/2(s12) cells are plated in a 96-well micro-titer plate (MTP) at 20,000 cells/well in full medium [DMEM with 10% FBS]. Then plates are placed in the incubator for incubation overnight (O/N), at 37° C. and 5% CO2. After 24 h, the medium is replaced with Luciferase-assay medium (DMEM with 5% FBS). Compounds are thawed and diluted in assay medium at 3:1000 (about 300-fold) resulting in a starting concentration of about 30 μM.
Subsequently, 150 μl of each 30 μM sample is added to the first wells (in triplicate). The MTP samples are then diluted at 3-fold dilutions to a total of seven wells, ultimately resulting in a regiment of seven dilutions in triplicate, for each compound. Next, the protein ligand OCT-SHH is diluted in Luciferase-assay medium and added to each well at a final concentration of 0.3 μg/ml. Plates are then returned to the incubator for further incubation O/N, at 37° C. and 5% CO2. After about 24 h, plates are removed from the incubator and the medium is aspirated/discarded. Wells are washed once with assay buffer [PBS+1 mM Mg^2+ and 1 mM Ca^2+]. Then 50 μl of assay buffer is added to each well. The Luciferase assay reagent is prepared as described by the vendor (LucLite kit from Packard), and 50 μl is added to each well. Plates are incubated at room temperature (RT) for about 30 minutes after which the signals are read, again at RT, on a Topcount (Packard).
O=C(NCc1nc2ccccc2c(=O)n1-c1ccc(F)cc1)Nc1ccc(Cl)c(Cl)c1 [Compound 68] gave an IC50 of less than 1 µM. CC(c1nc2ccccc2c(=O)n1-c1ccc(F)cc1)N(C)C(=O)Nc1ccc(C(F)(F)F)cc1 (stereo not drawn) [Compound 54] showed an IC50 of less than 5 µM. CC(c1nc2ccccc2c(=O)n1-c1ccc(F)cc1)N(C)C(=O)Nc1ccc([N+](=O)[O-])cc1Cl (stereo not drawn) [Compound 64] gave an IC50 of less than 10 µM. CCCN(C(=O)Nc1cccc(Cl)c1)C(C)c1nc2ccccc2c(=O)n1-c1ccc(F)cc1 (stereo not drawn) [Compound 34] showed an IC50 of less than 5 µM. Molecule O=C(Cc1cccc(C(F)(F)F)c1)NCCc1nc2ccccc2c(=O)n1-c1ccc(F)cc1 [Compound 50] has an IC50 of less than 1 µM. With O=C(Nc1cccc(C(F)(F)F)c1)NC(c1nc2ccccc2c(=O)n1-c1ccc(F)cc1)C1CC1 (stereo not drawn) [Compound 75] the IC50 was less than 5 µM. In the case of CC(c1nc2ccccc2c(=O)n1-c1ccc(F)cc1)N(C)C(=O)Nc1cccc(SC(F)(F)F)c1 (stereo not drawn) [Compound 52], the IC50 is reported as less than 1 µM. CC(c1nc2ccccc2c(=O)n1-c1ccc(F)cc1)N(C)C(=O)Nc1ccc([N+](=O)[O-])c(C(F)(F)F)c1 (stereo not drawn) [Compound 32] was tested, and the IC50 was less than 5 µM. In the case of CCCCCCCCC(=O)N(CCCCC)C(C)c1nc2ccccc2c(=O)n1-c1ccccc1 (stereo not drawn) [Compound 41], the IC50 is reported as less than 10 µM. CCCN(CCC(=O)NC1CCCc2ccccc21)C(=O)c1cc(OC)cc(OC)c1 (stereo not drawn) [Compound 47] was tested, and the IC50 was less than 5 µM. For CCC(=O)N1CCN(C(CC)c2nc3ccccc3c(=O)n2-c2ccc(C)cc2)C(C)C1 (stereo not drawn) [Compound 42], the IC50 was less than 5 µM. For Cc1c(NC(=O)N(C)C(C)c2nc3ccccc3c(=O)n2-c2ccc(F)cc2)cccc1[N+](=O)[O-] (stereo not drawn) [Compound 59], the IC50 was less than 5 µM. CC(c1nc2ccccc2c(=O)n1-c1ccc(F)cc1)N(C)C(=O)Nc1cccc(C(F)(F)F)c1 (stereo not drawn) [Compound 11] showed an IC50 of less than 5 µM. CC(c1nc2ccccc2c(=O)n1-c1ccc(F)cc1)N(C)C(=O)Nc1ccc([N+](=O)[O-])c(Cl)c1 (stereo not drawn) [Compound 62] showed an IC50 of less than 1 µM. CC(C)c1cccc(NC(=O)N(C)C(C)c2nc3ccccc3c(=O)n2-c2ccc(F)cc2)c1 (stereo not drawn) [Compound 57] gave an IC50 of less than 10 µM. For CC(c1nc2ccccc2c(=O)n1-c1ccc(F)cc1)N1CCN(C(=O)Nc2ccc(Cl)c(Cl)c2)CC1 (stereo not drawn) [Compound 43], the IC50 was less than 10 µM. CC(c1nc2ccccc2c(=O)n1-c1ccc(F)cc1)N(C)C(=O)Nc1ccc(Cl)c(C(F)(F)F)c1 (stereo not drawn) [Compound 61] gave an IC50 of less than 1 µM. CCCCc1ccc(C(=O)N(Cc2ccccc2)C(CC)c2nc3ccccc3c(=O)n2-c2ccc(C)cc2)cc1 (stereo not drawn) [Compound 40] showed an IC50 of less than 10 µM. For CCOOC(=O)c1cccc(NC(=O)N(C)C(C)c2nc3ccccc3c(=O)n2-c2ccc(F)cc2)c1 (stereo not drawn) [Compound 65], the IC50 was less than 10 µM. CC(c1nc2ccccc2c(=O)n1-c1ccc(F)cc1)N(C)C(=O)Nc1ccc(-c2ccccc2)cc1 (stereo not drawn) [Compound 56] showed an IC50 of less than 10 µM. Molecule CC(NC(=O)Nc1cccc(C(F)(F)F)c1)c1nc2ccccc2c(=O)n1-c1ccc(F)cc1 (stereo not drawn) [Compound 73] has an IC50 of less than 5 µM. CC(c1nc2ccccc2c(=O)n1-c1ccc(F)cc1)N(C)C(=O)Nc1ccc(SC(F)(F)F)cc1 (stereo not drawn) [Compound 60] showed an IC50 of less than 5 µM. CC(c1nc2ccccc2c(=O)n1-c1ccc(F)cc1)N(C)C(=O)Nc1ccc(Cl)c(Cl)c1 (stereo not drawn) [Compound 53] gave an IC50 of less than 1 µM. With CCOC(=O)c1ccccc1NC(=O)N(C)C(C)c1nc2ccccc2c(=O)n1-c1ccc(F)cc1 (stereo not drawn) [Compound 63] the IC50 was less than 10 µM. With CCC(c1nc2ccccc2c(=O)[nH]1)N1CCN(C(=O)Nc2ccc(Cl)c(Cl)c2)C(C)C1 (stereo not drawn) [Compound 45] the IC50 was less than 5 µM. O=C(NCc1nc2ccccc2c(=O)n1-c1ccc(F)cc1)Nc1ccc(Cl)c(C(F)(F)F)c1 [Compound 5] was tested, and the IC50 was less than 0.1 µM. O=C(NCCCc1nc2ccccc2c(=O)n1-c1ccc(F)cc1)Nc1cccc(C(F)(F)F)c1 [Compound 74] gave an IC50 of less than 5 µM. CCCN(C(=O)Nc1cccc(C(F)(F)F)c1)C(C)c1nc2ccccc2c(=O)n1-c1ccc(F)cc1 (stereo not drawn) [Compound 36] showed an IC50 of less than 5 µM. O=C(NCc1nc2ccccc2c(=O)n1-c1ccc(F)cc1)Nc1cccc(C(F)(F)F)c1 [Compound 44] showed an IC50 of less than 1 µM. In the case of COc1cccc(NC(=O)NCc2nc3ccccc3c(=O)n2-c2ccc(F)cc2)c1C [Compound 71], the IC50 is reported as less than 10 µM. For CC(c1nc2ccccc2c(=O)n1-c1ccc(F)cc1)N(C)C(=O)Nc1ccc(Cl)cc1[N+](=O)[O-] (stereo not drawn) [Compound 66], the IC50 was less than 10 µM. Molecule CC(c1nc2ccccc2c(=O)n1-c1ccc(F)cc1)N(C)C(=O)Nc1cccc(F)c1 (stereo not drawn) [Compound 55] has an IC50 of less than 5 µM. CCC(c1nc2ccccc2c(=O)n1-c1ccc(C)cc1)N(CCc1ccccc1)C(=O)CCCCF (stereo not drawn) [Compound 39] gave an IC50 of less than 5 µM. CC(c1nc2ccccc2c(=O)n1-c1ccc(F)cc1)N(Cc1ccco1)C(=O)Nc1cccc(F)c1 (stereo not drawn) [Compound 31] was tested, and the IC50 was less than 10 µM. With CC(c1nc2ccccc2c(=O)n1-c1ccc(F)cc1)N(C)C(=O)Nc1cc(Cl)nc(Cl)c1 (stereo not drawn) [Compound 58] the IC50 was less than 5 µM. Molecule CCC(c1nc2ccccc2c(=O)[nH]1)N1CCN(C(=O)c2ccc(-c3ccccc3)cc2)C(C)C1 (stereo not drawn) [Compound 46] has an IC50 of less than 0.5 µM. O=C(NCc1nc2ccccc2c(=O)n1-c1ccc(F)cc1)Nc1cc(Cl)nc(Cl)c1 [Compound 6] showed an IC50 of less than 0.5 µM. In the case of CCC(C)N(CCC(=O)NC1CCCc2ccccc21)C(=O)COc1ccc(Cl)cc1 (stereo not drawn) [Compound 49], the IC50 is reported as less than 1 µM. For CCCN(C(=O)Nc1cccc(OC)c1)C(C)c1nc2ccccc2c(=O)n1-c1ccc(F)cc1 (stereo not drawn) [Compound 38], the IC50 was less than 5 µM. With Cc1c(NC(=O)NCc2nc3ccccc3c(=O)n2-c2ccc(F)cc2)cccc1SC(F)(F)F [Compound 67] the IC50 was less than 5 µM. For CC(c1nc2ccccc2c(=O)n1-c1ccc(F)cc1)N(C)C(=O)Nc1cccc(C#N)c1 (stereo not drawn) [Compound 51], the IC50 was less than 5 µM. Work on O=C(NCc1nc2ccccc2c(=O)n1-c1ccc(F)cc1)Nc1ccc(Cl)c([N+](=O)[O-])c1 [Compound 69] yielded an IC50 of less than 0.5 µM. For CCC(C)N(CCC(=O)NC1CCCc2ccccc21)C(=O)c1cccc2ccccc12 (stereo not drawn) [Compound 48], the IC50 was less than 0.5 µM.
